Assay results published in patent publication US8912121B2, “Herbicidal compositions comprising 4-amino-3-chloro-5-fluoro-6-(4-chloro-2-fluoro-3-methoxyphenyl)pyridine-2-carboxylic acid or a derivative thereof and certain PS II inhibitors” (Dow Agrosciences LLC, priority 2012, dated 2014).

Legend:
[1] = test system: FIMMI (Fimbristylis miliacea, globe fringerush); assay: In-water applied mixtures, transplanted paddy rice, greenhouse; format: in vivo, Fimbristylis miliacea (L.) Vahl; conditions: 19 DAA
Procedure: Weed seeds or nutlets of the desired test plant species were planted in puddled soil (mud) prepared by mixing a shredded, non-sterilized mineral soil (50.5 percent silt, 25.5 percent clay, and 24 percent sand, with a pH of about 7.6 and an organic matter content of about 2.9 percent) and water at a 1:1 volumetric ratio. The prepared mud was dispensed in 365 mL aliquots into 16-ounce (oz.) non-perforated plastic pots with a surface area of 86.59 square centimeters (cm^2) leaving a headspace of 3 centimeters (cm) in each pot Mud was allowed to dry overnight prior to planting or transplanting. Rice seeds were planted in Sun Gro MetroMix® 306 planting mixture, which typically has a pH of 6.0 to 6.8 and an organic matter content of about 30 percent, in plastic plug trays. Seedlings at the second or third leaf stage of growth were transplanted into 840 mL of mud contained in 32-oz. non-perforated plastic pots with a surface area of 86.59 cm^2 4 days prior to herbicide application. The paddy was created by filling the headspace of the pots with 2.5 to 3 cm of water. When required to ensure good germination and healthy plants, a fungicide treatment and/or other chemical or physical treatment was applied. The plants were grown for 4-22 days in a greenhouse with an approximate 14 h photoperiod which was maintained at about 29° C during the day and 26° C. during the night. Nutrients were added as Osmocote® (19:6:12, N:P:K+ minor nutrients) at 2 g per 16-oz. pot and 4 g per 32-oz. pot. Water was added on a regular basis to maintain the paddy flood, and supplemental lighting was provided with overhead metal halide 1000-Watt lamps as necessary. The plants were employed for testing when they reached the first through fourth true leaf stage.
Treatments consisted of the acid or esters of 4-amino-3-chloro-5-fluoro-6-(4-chloro-2-fluoro-3-methoxy-phenyl)pyridine-2-carboxylic acid (compound A) each formulated as an SC (suspension concentrate) and various herbicidal components alone and in combination. Forms of compound A were applied on an acid equivalent basis.
Other herbicidal components were applied on an active ingredient basis and included photosystem II (PSII)-inhibits propanil formulated as […] bentazon-sodium formulated as Basagran®, and simetryne (technical grade material).
Treatment requirements for each compound or herbicidal component were calculated based upon the rates being tested, the concentration of active ingredient or acid equivalent in the formulation, an application volume of 2 mL per component per pot, and an application area of 86.59 cm^2 per pot.
For formulated compounds, a measured amount was placed in an individual 100 or 200 mL glass vial and was dissolved in a volume of 1.25% (v/v) Agri-Dex® crop oil concentrate to obtain application solutions.
For technical grade compounds, a weighed amount was placed in an individual 100 to 200 mL glass vial and was dissolved in a volume of acetone to obtain concentrated stock solutions. […]
The treated plants and control plants were placed in a greenhouse as described above and water was added as needed to maintain a paddy flood. After approximately 3 weeks the condition of the test plants as compared with that of the untreated plants was determined visually and scored on a scale of 0 to 100 percent where 0 corresponds to no injury or growth inhibition and 100 corresponds to complete kill. […]

[2] = test system: GALAP (Galium aparine, catchweed bedstraw); assay: Postemergence herbicidal activity of mixtures in cereal crops, greenhouse; format: in vivo, Galium aparine L.
Procedure: Seeds of the desired test plant species were planted in Sun Gro MetroMix® 306 planting mixture, which typically has a pH of 6.0 to 6.8 and an organic matter content of about 30 percent, in plastic pots with a surface area of 103.2 square centimeters (cm^2). When required to ensure good germination and healthy plants, a fungicide treatment and/or other chemical or physical treatment was applied. The plants were grown for 7-36 days in a greenhouse with an approximate 14 hour photoperiod which was maintained at about 18° C. during the day and about 17° C. during the night. Nutrients and water were added on a regular basis and supplemental lighting was provided with overhead metal halide 1000-Watt lamps as necessary. The plants were employed for testing when they reached the second or third true leaf stage.
Treatments consisted of the benzyl ester of 4-amino-3-chloro-5-fluoro-6-(4-chloro-2-fluoro-3-methoxy-phenyl)pyridine-2-carboxylic acid (Compound A), formulated as an SC, a second cereal herbicide alone and then both in combination.
Other herbicidal components were applied on an active ingredient basis and included PSII-inhibiting herbicides.
Measured aliquots of benzyl ester of 4-amino-3-chloro-5-fluoro-6-(4-chloro-2-fluoro-3-methoxy-phenyl)pyridine-2-carboxylic acid (Compound A) were placed in 25 milliliter (mL) glass vials and diluted in a volume of 1.25% (v/v) Agri-Dex® crop oil concentrate to obtain stock solutions. Compound requirements are based upon a 12 mL application volume at a rate of 187 liters per hectare (L/ha). Spray solutions of the second cereal herbicide and experimental compound mixtures were prepared by adding the stock solutions to the appropriate amount of dilution solution to form 12 mL spray solution with active ingredients in two- and three-way combinations. Formulated compounds were applied to the plant material with an overhead Mandel track sprayer equipped with an 8002E nozzle calibrated to deliver 187 L/ha over an application area of 0.503 square meters (m^2) at a spray height of 18 inches (46 cm) above average plant canopy. Control plants were sprayed in the same manner with the solvent blank.
The treated plants and control plants were placed in a greenhouse as described above and watered by sub-irrigation to prevent wash-off of the test compounds. After 20-22 days, the condition of the test plants as compared with that of the control plants was determined visually and scored on a scale of 0 to 100 percent where 0 corresponds to no injury and 100 corresponds to complete kill.
Colby's equation was used to determine the herbicidal effects expected from the mixtures (Colby, S. R. 1967. Calculation of the synergistic and antagonistic response of herbicide combinations. Weeds 15:20-22).
The following equation was used to calculate the expected activity of mixtures containing two active ingredients, A and B: Expected=A+B−(A×B/100)

## COc1c(Cl)ccc(-c2nc(C(=O)OCc3ccccc3)c(Cl)c(N)c2F)c1F [Compound A Benzyl Ester, benzyl ester of 4-amino-3-chloro-5-fluoro-6-(4-chloro-2-fluoro-3-methoxy-phenyl)pyridine-2-carboxylic acid]
[1]; 8 g ae/ha
  Visual Weed Control (%) Obs: 0%
[1]; 16 g ae/ha
  Visual Weed Control (%) Obs: 0%
[1]; 32 g ae/ha
  Visual Weed Control (%) Obs: 85%
[2]; Compound A Benzyl Ester 5 g ai/ha
  Visual Weed Control (%) - 21 DAA GALAP Obs: 66%
[2]; Compound A Benzyl Ester 10 g ai/ha
  Visual Weed Control (%) - 21 DAA GALAP Obs: 77%
